Six molecules from patent publication US20220144854A1, “MACROCYCLIC COMPOUNDS” (ZENO MANAGEMENT, INC., priority 2019, published 2022) can be followed below.

Molecules are shown by their SMILES. Some results are limits rather than exact numbers.

Usually IC50 stands for the midpoint of a concentration-inhibition curve.

The conditions of series [1]: from COC(=O)c1c(CCCI)c2ccc(Cl)c(-c3c(CN(Cc4cc(CCc5cc(O)c6ccccc6c5)n(C)n4)C(=O)OC(C)(C)C)nn4c3CCC4)c2n1C; ether bond; 21-membered ring; K2CO3; MeCN; 3.61 mM; 60.0 °C.
The next series has as its target Mcl-1 (Homo sapiens, UniProt Q07820). The experiment in a line: Mcl-1 Homogeneous Time Resolved Fluorescence (HTRF) binding assay. The note with it: HTRF; 4 nM Mcl-1, 100 nM FAM-Bak peptide; 10-dose, singlicate; read-out: Mcl-1 IC50.
In series [2] the test system is NCI-H929 (ATCC CRL-9068) cells. The experiment in a line: NCI-H929 cell proliferation assay (CellTiter-Glo). Format: cell-based. As to conditions: 72 h of compound treatment. On the technique in general: Cellular ATP, detected with luciferase, serves as a proxy for viable cell number.

Mcl-1, sequence (Q07820 whole entry): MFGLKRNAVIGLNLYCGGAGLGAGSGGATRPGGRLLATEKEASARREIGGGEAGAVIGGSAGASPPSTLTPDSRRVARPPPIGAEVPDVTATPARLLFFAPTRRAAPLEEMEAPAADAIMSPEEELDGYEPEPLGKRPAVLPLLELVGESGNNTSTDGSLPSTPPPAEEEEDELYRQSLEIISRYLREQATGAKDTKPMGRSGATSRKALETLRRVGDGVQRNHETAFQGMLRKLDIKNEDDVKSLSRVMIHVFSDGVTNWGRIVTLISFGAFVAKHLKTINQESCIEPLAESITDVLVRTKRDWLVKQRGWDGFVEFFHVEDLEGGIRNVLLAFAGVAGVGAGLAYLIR

For `COC(=O)c1c2c3ccc(Cl)c(c3n1C)-c1c(nn3c1CCC3)CN(C(=O)OC(C)(C)C)Cc1cc(n(C)n1)CCc1cc(c3ccccc3c1)OCCC2`, the ring closure, isolated yield in series [1] turned out to be 40%.
For the molecule `Cn1nc2cc1CSc1cc(c3ccccc3c1)OCCCc1c(C(=O)O)n(C)c3c(c(Cl)ccc13)-c1c(nn(C)c1C#N)CSC2` (single isomer, unassigned) [Example 1A, (Z)-1^6-Chloro-2^5-cyano-1^1,2^1,6^1-trimethyl-1^1H,2^1H,6^1H-10-oxa-4,8-dithia-1(7,3)-indola-2(4,3),6(3,5)-dipyrazola-9(3,1)-naphthalenacyclotridecaphane-1^2-carboxylic acid], the values for the half-maximal inhibitory concentration (IC50) (at Mcl-1; in series [2]) were below 10 nM and 100 to 1000 nM, respectively.
The like results for `Cn1nc2cc1CSc1cc(c3ccccc3c1)OCCCc1c(C(=O)O)n(C)c3c(c(Cl)ccc13)-c1c(nn3c1CCC3)CSC2` (single isomer, unassigned) [Example 3B, (Z)-1^6-Chloro-1^1,6^1-dimethyl-2^5,2^6-dihydro-1^1H,2^4H,6^1H-10-oxa-4,8-dithia-1(7,3)-indola-2(3,2)-pyrrolo[1,2-b]pyrazola-6(3,5)-pyrazola-9(3,1)-naphthalenacyclotridecaphane-1^2-carboxylic acid] were, in that order, 10 to 100 nM and above 1000 nM.
`CCn1nc2cc1CSc1cc(c3ccccc3c1)OCCCc1c(C(=O)O)n(C)c3c(c(F)ccc13)-c1c(C)nn(C)c1CSC2` (single isomer, unassigned) [Example 15A, (Z)-6^1-Ethyl-1^6-fluoro-1^1,2^1,2^3-trimethyl-1^1H,2^1H,6^1H-10-oxa-4,8-dithia-1(7,3)-indola-2(4,5),6(3,5)-dipyrazola-9(3,1)-naphthalenacyclotridecaphane-1^2-carboxylic acid]: the IC50 is above 100 nM on Mcl-1 and above 1000 nM in series [2] (Homo sapiens, NCI-H929, 72 h).
With `Cc1[nH]nc2c1-c1c(Cl)ccc3c(c(C(=O)O)n(C)c13)CCCOc1cc(cc3ccccc13)SCc1cc(nn1C)CSC2` (single isomer, unassigned) [Example 6A, (Z)-1^6-Chloro-1^1,2^5,6^1-trimethyl-1^1H,2^1H,6^1H-10-oxa-4,8-dithia-1(7,3)-indola-2(4,3),6(3,5)-dipyrazola-9(3,1)-naphthalenacyclotridecaphane-1^2-carboxylic acid], the half-inhibitory concentration (IC50) at Mcl-1 was below 10 nM; in series [2] it was below 100 nM.
The like results for `Cn1nc2cc1CSc1cc(c3ccccc3c1)OCCCc1c(C(=O)O)n(C)c3c(c(Cl)ccc13)-c1c(nn3c1CSC3)CSC2` (single isomer, unassigned) [Example 5B, (Z)-1^6-Chloro-1^1,6^1-dimethyl-1^1H,2^4H,2^6H,6^1H-10-oxa-4,8-dithia-2(3,2)-pyrazolo[1,5-c]thiazola-1(7,3)-indola-6(3,5)-pyrazola-9(3,1)-naphthalenacyclotridecaphane-1^2-carboxylic acid] were, in that order, above 100 nM and above 1000 nM.
